Assay results from US20210261583A1, “Synthetic Cytotoxic Molecules, Drugs, Methods of Their Synthesis and Methods of Treatment” (The Regents of the University of California, priority 2018, published 2021).
Where a name gives a salt, the structure may show the parent alone. Read-outs that look alike come from different tables or passages of the source.

What was measured:
[1] = Racemization/epimerization, deuterium incorporation and cyclization in protic solvents; type: physicochemical; conditions: for time to complete incorporation of deuterium at C-2: D2O, room temperature; for racemization / epimerization after N-Boc deprotection: dissolved in protic solvents such as water and MeOH, gives 1:1 mixture of enantiomers or epimers
Experimental: In the presence of D2O at room temperature, deuterium was incorporated at C-2 confirming a fast enolization followed by β-elimination and ring closure. […] The incorporation of deuterium is complete in 30 min at pH=10, and in 3 hours at pH=7.
It was therefore decided to further investigate this new structural analog and we prepared the bicyclic enantiopure pyrrolizidine 17 bearing the aryloctyl appendage on C-3, in analogy with our lead compound 3 as well as the monocyclic variant 18, to check the effect of the substituent position and the nature of the azacycles (FIG. 7).

cancer cells = assay: Cytotoxicity (IC50); type: cell-based
CD98 = assay: Nutrient transporter (CD98) down-regulation; type: cell-based; conditions: for activity in downregulation tests: compared to hydroxy pyrrolidine ketone progenitors 20, 21, 23 and 24
vacuolation = assay: Vacuolation score; type: cell-based; conditions: for activity in vacuolation tests: compared to hydroxy pyrrolidine ketone progenitors 20, 21, 23 and 24
[2] = at concentration near IC50 / where it kills 50% of cells

Row | Compound | IC50 (cancer cells) [µM] | inhibition at 2.5 µM (CD98; 2.5 μM) [%] | inhibition at 10 µM (CD98; 10 μM) [%] | inhibition at 40 µM (CD98; 40 μM) [%] | Vacuolation score (vacuolation; 2.5 μM) | Vacuolation score (vacuolation; 10 μM) | further results
1 | CCCCCCCCc1ccc(C(=O)C[C@H]2C[C@H](CO)CN2)cc1.Cl (mixture of isomers) [Compound 12, 2-((2R,4S)-4-(Hydroxymethyl)pyrrolidin-2-yl)-1-(4-octylphenyl)ethan-1-one hydrochloride] | 2 | 44 | 50 |  |  |  | time to complete incorporation of deuterium at C-2 ([1]; pH=7): 3 h; time to complete incorporation of deuterium at C-2 ([1]; pH=10): 0.5 h; racemization / epimerization after N-Boc deprotection [1]: prone to racemization and epimerization; stability to epimerization ([1]; pH≤3 in H2O): stable only in very acidic conditions
2 | CCCCCCCCc1ccc(C(=O)CC[C@@H]2C[C@@H](O)CN2)cc1 [Compound 15, (2R,4R)-4-Hydroxy-2-(3-(4-octylphenyl)-3-oxopropyl)pyrrolidin-1-ium chloride] | 2.1 | 15 | 52 |  |  |  | 
3 | CCCCCCCCc1ccc(CC(=O)[C@@H]2C[C@@H](O)CN2)cc1.Cl [Compound 23, (2S,4R)-4-Hydroxy-2-(2-(4-octylphenyl)acetyl)pyrrolidin-1-ium chloride] | 18.6 | 13 | 23 | 59 | 0 | 0 | 
4 | CCCCCCCCc1ccc(C(=O)[C@H]2C[C@H](O)CN2)cc1.Cl [Compound 21, (2R,4S)-4-Hydroxy-2-(4-octylbenzoyl)pyrrolidin-1-ium chloride] | 15.3 | 12 | 51 | 41 | 0 |  | vacuolation (in words) (vacuolation; 10 μM): reached maximum vacuolation
5 | CCCCCCCCc1ccc(C[C@@H]2C[C@@H](O)CN2)cc1 [Compound 16, (3R,5R)-5-(4-Octylbenzyl)pyrrolidin-3-ol] | 2.2 | 40 | 63 |  |  |  | 
6 | CCCCCCCCc1ccc(C(=O)C[C@@H]2C[C@@H](O)CN2)cc1.Cl [Compound 11, (2S,4R)-4-Hydroxy-2-(2-(4-octylphenyl)-2-oxoethyl)pyrrolidin-1-ium chloride] | 2.1 | 22 | 46 |  |  |  | racemization / epimerization after N-Boc deprotection [1]: prone to racemization and epimerization
7 | CCCCCCCCc1ccc(C(=O)[C@@H]2C[C@@H](OP(=O)(O)O)CN2)cc1.Cl [Compound 30, (2S,4R)-2-(4-Octylbenzoyl)-4-(phosphonooxy)pyrrolidin-1-ium chloride] | 12.8 |  |  |  | 0 | 0 | % CD98 down-regulation (CD98; 10 μM): −9%; % CD98 down-regulation (CD98; 40 μM): −0%; activity in downregulation tests (CD98): totally inactive; Vacuolation score (vacuolation; 40 μM): 0; activity in vacuolation tests (vacuolation): totally inactive
8 | CCCCCCCCc1ccc(CC[C@@H]2CCCN2)cc1 [Compound 9, (R)-2-(4-Octylphenethyl)pyrrolidine hydrochloride] | 2.8 | 41 | 63 |  |  |  | 
9 | CCCCCCCCc1ccc(C(=O)[C@H]2C[C@H](CO)CN2)cc1.Cl [Compound 22, ((2R,4S)-4-(Hydroxymethyl)pyrrolidin-2-yl)(4-octylphenyl)methanone hydrochloride] | 19.6 | 0 | 19 | 61 | 0 | 0 | 
10 | CCCCCCCCc1ccc(CC(=O)[C@H]2C[C@H](O)CN2)cc1.Cl [Compound 24, (2R,4S)-4-Hydroxy-2-(2-(4-octylphenyl)acetyl)pyrrolidin-1-ium chloride] | 17.1 | 11 | 16 | 54 | 0 | 0 | 
11 | CCCCCCCCc1ccc(CC(O)[C@H]2C[C@H](O)CN2)cc1.Cl (stereo partly drawn) [Compound 26, (2R,4S)-4-Hydroxy-2-(1-hydroxy-2-(4-octylphenyl)ethyl)pyrrolidin-1-ium chloride] | 1.8 | 9 | 62 |  | 0 |  | nutrient transporter down-regulation (CD98; [2]): does not down-regulate nutrient transporter proteins; vacuolation (vacuolation; [2]): does not down-regulate nutrient transporter proteins or vacuolate
12 | CCCCCCCCc1ccc(CC(O)[C@@H]2C[C@@H](O)CN2)cc1 (stereo partly drawn) [Compound 25, (2S,4R)-4-Hydroxy-2-(1-hydroxy-2-(4-octylphenyl)ethyl)pyrrolidin-1-ium chloride] | 3 | 19 | 62 |  |  |  | 
13 | CCCCCCCCc1ccc(C(C[C@@H]2CCCN2)OC)cc1.Cl (single isomer, unassigned) [Compound 10, (2S)-2-(2-Methoxy-2-(4-octylphenyl)ethyl)pyrrolidine hydrochloride] |  |  |  |  | 0 |  | 
14 | CCCCCCCCc1ccc(C(=O)C[C@@H]2CCCN2)cc1.Cl [Compound 8, (S)-1-(4-Octylphenyl)-2-(pyrrolidin-2-yl)ethan-1-one hydrochloride] | 2.5 | 78 | 57 |  |  |  | racemization / epimerization after N-Boc deprotection [1]: prone to racemization and epimerization
15 | CCCCCCCCc1ccc(C(=O)[C@@H]2C[C@@H](O)CN2)cc1.Cl [Compound 20, (2S,4R)-4-Hydroxy-2-(4-octylbenzoyl)pyrrolidin-1-ium chloride] | 28.1 | 2 | 9 | 48 | 0 |  | 
16 | CCCCCCCCc1ccc(C(=O)[C@@H]2C[C@@H](OP(=O)(O)O)CN2)cc1.Cl [Compound 29, (2S,4R)-2-(4-Octylbenzoyl)-4-(phosphonooxy)pyrrolidin-1-ium chloride] | 12.9 |  |  |  | 0 | 0 | % CD98 down-regulation (CD98; 10 μM): 3%; % CD98 down-regulation (CD98; 40 μM): −8%; activity in downregulation tests (CD98): totally inactive; Vacuolation score (vacuolation; 40 μM): 0; activity in vacuolation tests (vacuolation): totally inactive
17 | CCCCCCCCc1ccc([C@H]2CCN[C@@H]2CO)cc1.Cl [Compound 3, reference compound] | 2.1 |  |  |  |  |  | % CD98 down-regulation (CD98; 2.5 μM): 42%; % CD98 down-regulation (CD98; 10 μM): 66%
18 | CCCCCCCCc1ccc(CC(=O)[C@@H]2C[C@@H](OP(=O)(O)O)CN2)cc1.Cl [Compound 31, (2S,4R)-2-(2-(4-Octylphenyl)acetyl)-4-(phosphonooxy)pyrrolidin-1-ium chloride] | 25 |  | 3 | 0 |  | 0 | activity in downregulation tests (CD98): totally inactive; Vacuolation score (vacuolation; 40 μM): 0; activity in vacuolation tests (vacuolation): totally inactive
19 | CCCCCCCCc1ccc(C(=O)CC[C@H]2C[C@H](CO)CN2)cc1.Cl [Compound 13] |  |  |  |  | 0 |  | % CD98 down-regulation (CD98; 2.5 μM): 8%; % CD98 down-regulation (CD98; 10 μM): 46%
20 | CCCCCCCCc1ccc([C@@H]2CCC3C[C@H](CO)CN32)cc1.Cl (stereo partly drawn) [Compound 14, ((2S,5S)-5-(4-Octylphenyl)hexahydro-1H-pyrrolizin-2-yl)methanol hydrochloride] | 12.4 | 0 | 32 | 68 | 0 | 0 | IC50 (cancer cells; hydrochloride): 12.2 µM
21 | CCCCCCCCc1ccc(CC(=O)[C@H]2C[C@H](OP(=O)(O)O)CN2)cc1.Cl [Compound 32, (2R,4S)-2-(2-(4-Octylphenyl)acetyl)-4-(phosphonooxy)pyrrolidin-1-ium chloride] | 25.3 |  | 5 | 8 |  | 0 | activity in downregulation tests (CD98): totally inactive; Vacuolation score (vacuolation; 40 μM): 0; activity in vacuolation tests (vacuolation): totally inactive
22 | CCCCCCCCc1ccc(C(=O)CC[C@H]2C[C@H](CO)CN2)cc1.Cl [Compound 13, 3-(2S,4S)-4-(Hydroxymethyl)pyrrolidin-2-yl)-1-(4-octylphenyl)propan-1-one hydrochloride] | 4 |  |  |  |  |  | 
23 | CCCCCCCCc1ccc(C(C[C@@H]2CCCN2)OC)cc1.Cl (single isomer, unassigned) [Compound 10, hydrochloride] | 3 | 15 | 58 |  |  |  | 
24 | CCCCCCCCc1ccc(C(=O)[C@@H]2CCCN2)cc1.Cl [Compound 19, (S)-2-(4-Octylbenzoyl)pyrrolidin-1-ium chloride] |  | -21 | -4 | 33 | 0 | 0 | 
